Reference: US7091238B1, “Thienylhydrazon with digitalis-like properties (positive inotropic effects)” (University of Maryland, priority 1999, dated 2006)
Entries after “also recorded” stand apart in the source; their conditions may differ.

Columns and labels:
[1] = tested on: Ca^2+-ATPase extracted from heart muscle or gastrocnemius muscle; assay: Effect on Ca2+-ATPase; format: biochemical; conditions: enzyme from rat heart or gastrocnemius muscle
From the text: Determination of phosphodiesterase direct effect was also negative.

dogs = assay: LD 50 in dogs; format: in vivo; conditions: dogs
Method: (§1) LASSBio-294 has very low toxic effects. This was tested in whole mouse, rat, and dog models (Greaves, P. (1998) Exp. Toxicol. Pathol. 50, 283). These models are commonly used to predict toxicity in humans (Chou, W. L., Robbie G., Chung, S. M., Wu, T. C., and Ma, C. (1998) Pharm. Res. 15, 1474). […] These tests predict LASSBio-294 can be dosed in humans to achieve therapeutic plasma levels without significant risk of toxicity.

LD 50 in dogs = format: in vivo; conditions: dog, in vivo
Method: as §1

blood cells = assay: Blood cell analysis in treated mice; format: in vivo; conditions: 2 or 10 mg/kg
Method: b. Rats were weighed before and after treatment with LASSBio 204. […] Six rats were examined in each group, measurements were made after 1–15 days of treatment. […] Mice were injected with LASSBio-294 and their blood examined for cell changes. Experimental groups received 2 or 10 mg/kg of drug. […] Table 4 lists blood chemistry analysis of mice treated with LASSBio-294. Experimental groups received 2 or 10 mg/kg of drug. Controls were saline and solvent. […] The low values of glucose found could be due to an artifact of the technique, glucose being a byproduct of hemolysis. […] General Method

single muscle fiber = assay: Twitch tension in single amphibian muscle fibers; format: cell-based, frog, rana pipiens
Method: FIG. 15. Effect of 12.5 μM of compound 294 on force development in a single muscle fiber stimulated at different frequencies. The frequency of stimulation in Hz is indicated under each trace. Top panel, stimulating cycle done in Ringer without compound 294. Middle panel, stimulating cycle done 17 min after the fiber was bathed with compound 294. Bottom panel, second cycle of stimulation done 17 min after compound 294 was washed out with Ringer. Force calibration bars are 50 mg for twitches and 10 Hz simulations and 100 mg for 30, 60, and 90 Hz.
FIG. 16. Histogram showing the effect of 12.5 μM compound 294 and after washing out LASSBio-294 on fractional twitch tension (Tx/To). Tx represents the twitch tension obtained when the fiber was bathed with the solutions indicated above each column. The order of the columns are the order in which the simulating cycles were performed.
The tests in amphibians were performed in isolated single muscle cells freshly isolated from either the semitendinous or the tibialis anterior muscles of the frog, rana pipiens. The isolated muscle cells were left resting for at least half an hour in Ringer's solution. The fibers were then stimulated with single, low-voltage, electric shocks. If fibers gave brisk twitches and had no signs of membrane damage, they were used. Otherwise, they were discarded. Healthy fibers were transferred to the experimental chamber, which consisted of a 0.3 ml narrow channel where the solutions could be changed several times within five seconds. One tendon of the fiber was gripped with a small clamp and the other tendon was attached to a hook of an Ekhart;s type force transducer. The stimulating electrode consisted of platinum wires placed to each side of the fiber. The muscle fibers were stretched 1.3 times their slack length to reach approximately an average sarcomere length of 1.6 μm.
The fibers were stimulated with single electric pulses of 0.5 msec duration and variable voltage. The voltage was increased until the threshold for contraction was reached. This voltage was then increased by 50% and the experimental protocol started. To find out if LASSBio-294 has an effect on contractility, a stimulating protocol was used consisting of a series of single twitches elicited every 3 sec. followed by different frequencies of tetanic stimulation of 10 Hz, 30 Hz, and 60 Hz. The fibers rested for three minutes between each tetanic stimulation. When the whole series of stimulations were repeated, the fibers rested for 10 min. between each series of twitches and tetanic stimulations. Fatigue was induced by repetitive cycles of electrical stimulation. Each cycle consisted of a train of electric shocks delivered at 60 Hz for 0.8 sec followed by a single twitch after 2.2 sec and repeated every 4.15 sec. […]. […]

isolated hearts = assay: Isometric (twitch) tension in isolated hearts under pre-load; parameters: species or system rat; conditions: 50 μM in bathing solution; pre-load of 1 g; vs control and wash
Method: FIG. 5. Recordings of twitch tension in isolated hearts. Control (top), LASSBio-294 (middle) and wash (bottom).
a Recordings of electrocardiogram (ECG) of isolated rat heart are shown in FIG. 4 which compare control, LASSBio-294 treatment, 10 uM, 50 μM and 100 μM and post-treatment wash. […] FIG. 5 illustrates a test of change in isometric tension induced by LASSBio-294 in isolated hearts under preload. Concentration of LASSBio-294 in the bathing solution is 50 μM, which is half of the highest concentration tested in the ECG tests described in FIG. 4. Hearts were treated under a pre-load of 1 g; control was compared to LASSBio-294 and wash. […] This effect was lost in the wash out period. The pre-load tension test is considered to be an animal model of congestive heart disease. Comparing the effect of drugs with this test is predictive of therapeutic effect of treatment in human congestive heart disease. General Method
Hearts were quickly removed and placed in an aorta retrograde perfusion system for measurement of ECG. Increasing concentrations of LASSBio-294 were added to the bathing solution. The system equilibrated for 5 min. before measurement of isometric tension after each addition.

[2] = tested on: neuromuscular transmission; assay: Contractions of gastrocnemius muscle induced by stimulation of the sciatic nerve; format: in vivo; conditions: rat gastrocnemius, vs DMSO vehicle
Method: FIG. 30. Records of contractions induced by stimulation of the sciatic nerve of equilibrated rat gastrocnemius muscles and of arterial pressure. In control, contractions were induced by intravenous injection of DMSO ([…]). LASSBio-294 was administered in DMSO. Calibration: Horizontal, 1 cm=24 s; Vertical 2 g=100 mm Hg.
FIG. 31. Records of contractions of rat gastrocnemius muscles induced by stimulation of the sciatic nerve and of arterial pressure. For control, contraction was induced by intravenous injection of […] (0.04 ml). LASSBio-294 was administered in DMSO.

O=C(NN=Cc1cccs1)c1ccc2c(c1)OCO2 [LASSBio-294, 3,4-methylenedioxybenzoyl-2-thienylhydrazone]
effect on Ca^2+-ATPase [1]: did not affect | LD 50 relative to the effective dose (dogs): > 1000 fold | LD50 (LD 50 in dogs): 1500 mg/kg | blood cell values (blood cells): unaffected; also recorded: no significant change in blood cell values | hematocrit levels, leucocytes and hemoglobin (blood cells): not significantly changed | increase of twitch tension vs control (single muscle fiber; 12.5 μM, second stimulation cycle, 17 min in compound): ~50% | increase of twitch peak tension vs control (single muscle fiber; 12.5 μM, three minutes after bathing): approximately 25% | twitch tension potentiation vs control after wash out (single muscle fiber; 17 min in Ringer after washing away 12.5 μM compound): approximately 77% | twitch force on re-exposure (single muscle fiber; fiber exposed again to 12.5 μM after wash out): decrease in twitch force | isometric tension (isolated hearts): increase in isometric tension compared to control | effect on neuromuscular junction / transmission [2]: no effect on the neuromuscular junction; also recorded: no effect on neuromuscular transmission; also recorded: unaffected
